Entries after “also recorded” stand apart in the source; their conditions may differ.
Key:
Aβ1-40 peptide = target: T1, Aβ1-40 peptide (Homo sapiens, UniProt P05067); assay: ThT assay of Aβ aggregation; type: biochemical; details: THC 0.25-250 nM; Aβ1-40 1 μM; FIG. 3A
T1 construct: purchased Biomer Technology, Pleasanton, Calif
Experimental: A ThT assay was conducted to examine the interaction between THC and Aβ, as ThT incorporates into Aβ when the amyloid protein aggregates, indicating whether there is a direct interaction between THC and Aβ aggregation.
Hexafluoroisopropanol-(HFIP) pretreated Aβ1-40 peptide (Biomer Technology, Pleasanton, Calif.). THC solution was prepared at concentration of 250 nM, 25 nM, 2.5 nM, and 0.25 nM in thioflavin T (ThT) (1.6 μg/mL dissolved in 20 mM Tris-HCL). The THC-ThT was added into black 96 well plates. Unaggregated Aβ peptide solution was thawed, diluted, and immediately added to wells, making the final concentration of Aβ1-40 at 1 μM. Control groups were setup as: 1) aggregation control; 2) control with ThT buffer only; and 3) Tris-HCl buffer only. Plate was mixed and fluorescence was read at 482 nm with excitation 440 nm with Biotek All-in-One plate reader. Fluorescence was screened for 2 hours with 5-minute intervals.

Aβ peptide = Aβ peptide (Homo sapiens, UniProt P05067); assay: Western blot of aggregated Aβ peptide / Aβ monomer; type: biochemical; details: 100 nM, 10 nM, 1 nM THC; FIGS. 4A, 4B
Chain of Aβ peptide (P05067 672-711 limits assumed): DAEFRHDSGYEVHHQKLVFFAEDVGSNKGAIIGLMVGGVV
Experimental: FIG. 4A is a western blot showing aggregated Aβ peptide with and without THC treatment.
FIG. 4B is a graph showing the relative quantity of Aβ monomer in the anti-aggregation study described in FIG. 4A. Cells were untreated for the aggregation control or treated with and 100 nM THC, 10 nM THC, and 1 nM THC.
In untreated samples, Aβ peptide increased in intensity for the first 20 minutes, followed by a plateauing of fluorescence at around 30 minutes, at which time the intensity remained constant for the duration of the study. […] Therefore, THC's direct interaction with the Aβ peptide will not dampen an immune response to clear the Aβ peptide. Further analysis with western blot was performed measuring the anti-aggregation properties of THC with Aβ peptide.

phosphorylated GSK-3β = assay: Western blot of phosphorylated GSK-3β in N2a/AβPPswe cells; type: cell-based; details: 25 nM, 2.5 nM, 0.25 nM THC; 36 hours; FIGS. 5D, 10B
Experimental: Cells were plated in 6 well plate overnight with 25 nM THC, 2.5 nM THC, or 0.25 nM THC added into each designated wells in duplicate. Cells were lysed after 36 hours incubation. Proteins were loaded onto SDS-page gel and then blotted with each antibody after transfer onto PVDF membrane.
Using 12% Tris-Glycine gel system (Bio-rad), proteins were separated by electrophoresis and semi-dry transferred to a PVDF membrane. GSK-3β and β-actin antibodies were used as primary antibody. After adding secondary antibody, the membranes were exposed using ECL substrate (Pierce). After membrane was developed, film with bands were scanned, followed by analysis of gel-quantification software (QuantityOne, from Biorad).

[1] = test system: phosphorylated Tau (pTau); assay: Western blot of phosphorylated Tau in N2a/AβPPswe cells; type: cell-based
Experimental: (§1) FIG. 6C is a western blot assay showing Tau and phosphorylated Tau (pTau) levels in N2a/AβPPswe treated with 25 nM THC, 2.5 nM THC, or 0.25 nM THC. Anti-Tau, anti-pTau and β-actin antibodies were used to detect Tau and pTau, and β-actin that served as the protein loading control.
(§2) FIG. 11C is a western blot assay showing Tau and phosphorylated Tau levels in N2a/AβPPswe treated as follows: untreated (CTRL, control), or 10^−5 M Melatonin with 2.5 nM THC, 10^−6 M Melatonin with 2.5 nM THC. Anti-Tau and anti-pTau antibodies were used to […] that served as the protein loading control.
(§3) Amyloid processing and ancillary amyloid protein effects were next tested. After stripping the Western, and restaining for AβPP, using anti-Tau (Chuanhai Cao, Tampa, Fla.), anti-pTau (Chuanhai Cao, Tampa, Fla.), and anti-β-actin antibodies (Cat #A54441, Sigma Aldrich, Merck KGaA; Darmstadt, Germany)) were used to detect Tau levels against a protein loading control (β-actin). After data was collected the membrane was stripped using a western blot striping buffer (Cat #21059, Thermo Fisher Scientific, Waltham, Mass.) and stained for AβPP using 6E10 antibody (Cat #803002, BioLegend, Inc., San Diego, Calif.). Anti-mouse secondary horseradish peroxidase (Cat #A9044, Sigma Aldrich, Merck KGaA; Darmstadt, Germany) secondary antibodies were used.

Tau = assay: Western blot of Tau in N2a/AβPPswe cells; type: cell-based
Experimental: as §1, §2, §3

[2] = target: AChE induced Aβ aggregation (Homo sapiens, UniProt P22303); details: THC 50 μM; cited from earlier work
Chain of AChE induced Aβ aggregation (P22303 32-614): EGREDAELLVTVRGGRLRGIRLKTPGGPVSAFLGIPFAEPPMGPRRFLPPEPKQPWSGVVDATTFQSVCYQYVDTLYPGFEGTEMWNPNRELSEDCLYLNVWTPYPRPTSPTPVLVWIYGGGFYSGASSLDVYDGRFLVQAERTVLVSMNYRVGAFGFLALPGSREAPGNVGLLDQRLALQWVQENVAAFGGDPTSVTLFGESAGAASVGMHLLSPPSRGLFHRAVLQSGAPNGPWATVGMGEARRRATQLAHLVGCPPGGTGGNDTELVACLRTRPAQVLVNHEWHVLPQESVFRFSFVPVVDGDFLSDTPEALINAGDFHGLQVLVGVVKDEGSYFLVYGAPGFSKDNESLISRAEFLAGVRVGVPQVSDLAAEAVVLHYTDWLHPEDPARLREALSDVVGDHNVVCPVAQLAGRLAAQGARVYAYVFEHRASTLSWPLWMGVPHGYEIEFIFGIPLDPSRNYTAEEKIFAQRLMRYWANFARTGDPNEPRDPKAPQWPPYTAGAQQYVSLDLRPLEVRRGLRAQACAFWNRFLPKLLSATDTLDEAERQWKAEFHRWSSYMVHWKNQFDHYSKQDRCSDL

GSK-3β = details: 10 mg/kg of body weight of THC; mice; cited from earlier work
[3] = in vivo; cited from earlier work
brain energy metabolism = details: repeated high doses of THC (10 mg/kg body weight); rat brains; cited from earlier work

T1 sequence (P05067 672-711): as the sequence (P05067 672-711 limits assumed) above

CCCCCc1cc(O)c2c(c1)OC(C)(C)[C@@H]1CCC(C)=C[C@@H]21 [THC, Δ9-tetrahydrocannabinol]
Thioflavin T fluorescence intensity / Aβ aggregation (Aβ1-40 peptide): lowers Aβ aggregation; also recorded: dose-dependent decrease; also recorded: inhibits Aβ40 aggregation | Relative quantity of Aβ monomer (Aβ peptide): increases monomeric Aβ; also recorded: higher relative % of Aβ monomer | Phosphorylated GSK-3β, THC alone (phosphorylated GSK-3β): decreases the phosphorylation of GSK-3β; also recorded: decrease of phosphorylated GSK-3β; also recorded: decreases phosphorylated GSK-3β | Ratio of pTau:Tau among THC concentrations ([1]; 2.5 nM THC, FIG. 8): peak of pTau:Tau ratio | Phosphorylated Tau levels, THC alone ([1]; 25 nM, 2.5 nM, 0.25 nM THC, FIGS. 6C, 6D): reduction by THC in a dose-dependent manner; also recorded: lowers the phosphorylation of tau in a dose dependent manner; also recorded: decreases phosphorylated Tau | Ratio of phosphorylated Tau to Tau, THC alone ([1]; 25 nM, 2.5 nM, 0.25 nM THC, FIGS. 8, 13): increase the ratio of pTau:Tau; also recorded: increase in phosphorylated Tau; also recorded: increases phosphorylated Tau | Tau level among THC concentrations (Tau; 2.5 nM THC, FIGS. 6C, 7): lowest level of Tau | Tau protein levels (standardized to β-actin), THC alone (Tau; 25 nM, 2.5 nM, 0.25 nM THC, FIG. 7): lowers the production of Tau; also recorded: reduces Tau protein levels | AChE induced Aβ aggregation [2]: prevents AChE induced Aβ aggregation | Phosphorylation of GSK-3β (GSK-3β): increased phosphorylation of GSK-3β | Bioavailability [3]: 30% | Brain energy metabolism (brain energy metabolism): dampen the brain energy metabolism

— patent US11446276B2, “Extreme low dose THC as a therapeutic and prophylactic agent for Alzheimer's disease” (University of South Florida, priority 2015, dated 2022)
